Measurements from ChEMBL document CHEMBL3044554, “Comparison of Phytotoxicities between 4-Fluorinated and Non-fluorinated 2-Chloro-5-(3, 4, 5, 6-tetrahydrophthalimido)benzoates” (J Pestic Sci, 1999).

Columns and labels:
Conditions in all cases: read-out: pI50 (converted)
[1] = tested on: Scenedesmus acutus; test: Peroxidizing phytotoxicity against Scenedesmus acutus assessed as ethane production after 20 hr; type: functional, organism-based
[2] = tested on: Scenedesmus acutus; test: Growth inhibition of Scenedesmus acutus assessed as changes in packed cell volume; type: functional, organism-based
[3] = tested on: Scenedesmus acutus; test: Phytotoxicity against Scenedesmus acutus assessed as reduction in chlorophyll content by spectroscopy; type: functional, organism-based
[4] = molecular target: T1, Protoporphyrinogen IX oxidase (Zea mays, UniProt Q9FYV8); test: Inhibition of protoporphyrinogen IX oxidase in Zea mays cv. Anjou (maize) seedlings homogenates assessed as protoporphyrinogen IX formation by spectrophotometry
T1 sequence (Q9FYV8 whole entry): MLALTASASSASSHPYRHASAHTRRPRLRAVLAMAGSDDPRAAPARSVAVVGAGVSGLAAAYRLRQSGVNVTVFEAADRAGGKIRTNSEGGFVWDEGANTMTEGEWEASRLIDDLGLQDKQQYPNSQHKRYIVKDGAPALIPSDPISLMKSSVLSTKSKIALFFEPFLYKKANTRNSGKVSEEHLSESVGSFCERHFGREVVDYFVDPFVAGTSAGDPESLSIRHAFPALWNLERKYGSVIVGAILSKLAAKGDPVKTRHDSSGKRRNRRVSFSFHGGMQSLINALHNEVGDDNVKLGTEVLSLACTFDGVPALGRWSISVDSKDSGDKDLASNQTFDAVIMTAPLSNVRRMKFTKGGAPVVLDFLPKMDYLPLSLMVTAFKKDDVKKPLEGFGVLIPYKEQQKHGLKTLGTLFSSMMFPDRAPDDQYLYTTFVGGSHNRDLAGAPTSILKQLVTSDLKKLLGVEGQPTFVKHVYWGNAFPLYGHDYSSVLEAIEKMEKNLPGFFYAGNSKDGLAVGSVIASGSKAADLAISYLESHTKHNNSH

Structure (SMILES) | IC50 [1] | IC50 [2] | IC50 [3] | IC50 [4]
C#CCOc1cc(N2C(=O)C3=C(CCCC3)C2=O)ccc1Cl | 0.537 µM | 0.1 µM | 0.0794 µM | –
C#CCOc1cc(N2C(=O)C3=C(CCCC3)C2=O)c(F)cc1Cl | 0.141 µM | 0.0158 µM | 0.0158 µM | 0.00182 µM
O=C1C2=C(CCCC2)C(=O)N1c1ccc(Cl)cc1F | 0.24 µM | 0.0372 µM | 0.0245 µM | 0.00372 µM
O=C(O)c1cc(N2C(=O)C3=C(CCCC3)C2=O)c(F)cc1Cl | 3.16 µM | 1 µM | 0.759 µM | 0.38 µM
COC(=O)c1cc(N2C(=O)C3=C(CCCC3)C2=O)c(F)cc1Cl | 0.17 µM | 0.0676 µM | 0.11 µM | 0.0112 µM
CCOC(=O)c1cc(N2C(=O)C3=C(CCCC3)C2=O)c(F)cc1Cl | 0.0871 µM | 0.0575 µM | 0.1 µM | 0.00417 µM
CCCOC(=O)c1cc(N2C(=O)C3=C(CCCC3)C2=O)c(F)cc1Cl | 0.0661 µM | 0.0331 µM | 0.0891 µM | 0.00389 µM
CC(C)OC(=O)c1cc(N2C(=O)C3=C(CCCC3)C2=O)c(F)cc1Cl | 0.0891 µM | 0.0138 µM | 0.0575 µM | 0.00138 µM
CCCCOC(=O)c1cc(N2C(=O)C3=C(CCCC3)C2=O)c(F)cc1Cl | 0.141 µM | 0.126 µM | 0.0676 µM | 0.00891 µM
CC(C)COC(=O)c1cc(N2C(=O)C3=C(CCCC3)C2=O)c(F)cc1Cl | 0.407 µM | 0.1 µM | 0.0331 µM | 0.0049 µM
CCC(C)OC(=O)c1cc(N2C(=O)C3=C(CCCC3)C2=O)c(F)cc1Cl (configuration not stated) | 0.0741 µM | 0.0603 µM | 0.0245 µM | 0.00263 µM
O=C(O)c1cc(N2C(=O)C3=C(CCCC3)C2=O)ccc1Cl | > 100 µM | > 100 µM | > 100 µM | 1.86 µM
COC(=O)c1cc(N2C(=O)C3=C(CCCC3)C2=O)ccc1Cl | 1.62 µM | 1.78 µM | 2 µM | 0.00891 µM
CCOC(=O)c1cc(N2C(=O)C3=C(CCCC3)C2=O)ccc1Cl | 2.14 µM | 1.91 µM | 1.38 µM | 0.00372 µM
CCCOC(=O)c1cc(N2C(=O)C3=C(CCCC3)C2=O)ccc1Cl | 0.661 µM | 1.12 µM | 1.86 µM | 0.00219 µM
CC(C)OC(=O)c1cc(N2C(=O)C3=C(CCCC3)C2=O)ccc1Cl | 0.182 µM | 1.23 µM | 1 µM | –
CCCCOC(=O)c1cc(N2C(=O)C3=C(CCCC3)C2=O)ccc1Cl | 7.76 µM | 6.31 µM | 3.55 µM | 0.00912 µM
CC(C)COC(=O)c1cc(N2C(=O)C3=C(CCCC3)C2=O)ccc1Cl | 15.5 µM | 0.977 µM | 0.759 µM | 0.00479 µM
CCC(C)OC(=O)c1cc(N2C(=O)C3=C(CCCC3)C2=O)ccc1Cl (configuration not stated) | 9.77 µM | 1.1 µM | 0.794 µM | 0.00251 µM
CC(C)(C)OC(=O)c1cc(N2C(=O)C3=C(CCCC3)C2=O)ccc1Cl | > 100 µM | 81.3 µM | 12.9 µM | 0.0282 µM
CCCCCOC(=O)c1cc(N2C(=O)C3=C(CCCC3)C2=O)ccc1Cl | 5.37 µM | 4.47 µM | 9.33 µM | 0.00759 µM
CCCCCCCCOC(=O)c1cc(N2C(=O)C3=C(CCCC3)C2=O)ccc1Cl | > 100 µM | > 100 µM | > 100 µM | 0.0251 µM
COC(=O)c1cc(Oc2ccc(C(F)(F)F)cc2Cl)ccc1[N+](=O)[O-] [ACIFLUORFEN-METHYL] | 0.0234 µM | 0.0708 µM | 0.0617 µM | 0.00219 µM
O=C(O)c1cc(Oc2ccc(C(F)(F)F)cc2Cl)ccc1[N+](=O)[O-] [ACIFLUORFEN] | 1.02 µM | 5.75 µM | 1.86 µM | 0.2 µM
O=C1C2=C(CCCC2)C(=O)N1c1ccc(Cl)cc1 [CHLOROPHTHALIUM] | 0.912 µM | 0.1 µM | 0.0794 µM | –
